Read-outs that look alike come from different tables or passages of the source.
Tests used:
[1] = test system: MiaPaca-2 (expressing KRAS G12C mutant); test: Proliferation Assay (Cell Viability Assay); format: cell-based; details: Homo sapiens, MIA PaCa-2
How it was run: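 MiaPaca-2 cells (KRAS G12C) were grown in DMEM-high glucose with 10% FBS, seeded at 2000–5000 cells/well and cultured overnight. Compounds were added at 10 μM final, or as serial dilutions for IC50, in 0.3% DMSO/10% FBS for 2–4 days at 37 °C, 5% CO2. Viability was measured with CellTiter 96 Aqueous One and % inhibition calculated.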

[2] = test system: KRas G12D mutant; test: Ras GTP Binding Domain Inhibition Assay (Ras Superfamily Assay); details: for KRas G12D mutant + SOS: % inh.: with SOS; for KRas G12D mutant: % inh.: without SOS
How it was run: (§1)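 Ni-plate capture of His-tagged protein (10-30 μg/mL, o/n 4° C); cpd 20 μM or dilution series, 1% DMSO, 3 h RT ± Sos 556-1049 last h; 100 nM Cy-labelled GTP 45 min RT; 3× wash; fluorescence read.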

[3] = test system: KRas wild type; test: as above; details: for KRas wild type + SOS: % inh.: with SOS; for KRas wild type: % inh.: without SOS
How it was run: as §1

[4] = biological target: T1, Rac-1 (Homo sapiens, UniProt P63000); test: as above; details: read-out: Rac-1: % inh.
T1 construct: made in house
How it was run: as §1

[5] = read-out: Proliferation in MiaPaca-2: IC50

IC50 [1, 5] [nM]	KRas G12D mutant + SOS: % inh. ([2]; 20 μM compound)	KRas G12D mutant: % inh. ([2]; 20 μM compound)	KRas wild type + SOS: % inh. ([3]; 20 μM compound)	KRas wild type: % inh. ([3]; 20 μM compound)	inhibition at 20 µM [4] [%]	IC50 ([1]; Proliferation assay, MiaPaca-2, read-out: MiaPaca-2 IC50 (nM) Pancreatic) [nM]	KRas G12D mutant + SOS: % inh. ([2]; at 20 μM)	KRas G12D mutant: % inh. ([2]; at 20 μM)	KRas wild type + SOS: % inh. ([3]; at 20 μM)	KRas wild type: % inh. ([3]; at 20 μM)	Compound
> 1000	A (A = 1-25% inhibition)	A (A = 1-25% inhibition)	A (A = 1-25% inhibition)	0 (0 = 0% inhibition)	1 to 25						COCCNC(=O)c1c(-c2ccn(C)n2)cn2nc(-c3nccn3C)nc(N[C@H]3CC[C@H](OC)C3)c12 (racemic) [Compound 183, rac 4-(((1S,3S)-3-Methoxycyclo-pentyl)amino)-N-(2-methoxyethyl)-2-(1-methyl-1H-imidazol-2-yl)-6-(1-methyl-1H-pyrazol-3-yl)pyrrolo[2,1-f][1,2,4]triazine-5-carboxamide]
< 150	D (D = 76-100% inhibition)	D (D = 76-100% inhibition)	D (D = 76-100% inhibition)	D (D = 76-100% inhibition)	76 to 100						COc1cc(Nc2nc(-c3nccn3C)nn3cc(-c4cccnc4)c(-c4cccnc4)c23)ncn1 [Compound 170, N-(6-Methoxypyrimidin-4-yl)-2-(1-methyl-1H-imidazol-2-yl)-5,6-di(pyridin-3-yl)pyrrolo[2,1-f][1,2,4]triazin-4-amine]
> 1000	B (B = 26-49% inhibition)	B (B = 26-49% inhibition)	B (B = 26-49% inhibition)	B (B = 26-49% inhibition)	26 to 49						Cc1c(-c2ccn(C)n2)cn2nc(-c3nccn3C)nc(O)c12 [Compound 172, 5-Methyl-2-(1-methyl-1H-imidazol-2-yl)-6-(1-methyl-1H-pyrazol-3-yl)pyrrolo[2,1-f][1,2,4]triazin-4-ol]
< 150					76 to 100	1 to 10	D (D = 76-100% inhibition)	D (D = 76-100% inhibition)	D (D = 76-100% inhibition)	D (D = 76-100% inhibition)	Cc1c(-c2ccn(C)n2)cn2nc(-c3nccn3C)nc(Nc3cc(N4CCOCC4)ccn3)c12 [Compound 222, 5-Methyl-2-(1-methyl-1H-imidazol-2-yl)-6-(1-methyl-1H-pyrazol-3-yl)-N-(4-morpholinopyridin-2-yl)pyrrolo[2,1-f][1,2,4]triazin-4-amine]
> 1000					76 to 100		D (D = 76-100% inhibition)	D (D = 76-100% inhibition)	D (D = 76-100% inhibition)	D (D = 76-100% inhibition)	COc1ccnc(Nc2nc(-c3nccn3C)nn3cc(-c4ccn(CCN)n4)c(C)c23)c1 [Compound 187, 6-(1-(2-Aminoethyl)-1H-pyrazol-3-yl)-N-(4-methoxypyridin-2-yl)-5-methyl-2-(1-methyl-1H-imidazol-2-yl)pyrrolo[2,1-f][1,2,4]triazin-4-amine]
150 to 500					50 to 75		B (B = 26-49% inhibition)	C (C = 50-75% inhibition)	B (B = 26-49% inhibition)	B (B = 26-49% inhibition)	COc1cnc(Nc2nc(-c3nccn3C)nn3cc(-c4ccn(C)n4)c(C)c23)cc1C [Compound 236, N-(5-Methoxy-4-methylpyridin-2-yl)-5-methyl-2-(1-methyl-1H-imidazol-2-yl)-6-(1-methyl-1H-pyrazol-3-yl)pyrrolo[2,1-f][1,2,4]triazin-4-amine]
> 1000					1 to 25		A (A = 1-25% inhibition)	A (A = 1-25% inhibition)	A (A = 1-25% inhibition)	A (A = 1-25% inhibition)	CO[C@H]1C[C@H](Nc2nc(-c3nccn3C)nn3cc(-c4cccc(OCCN)c4)c(-c4ccccc4)c23)C1 [Compound 205, 6-(3-(2-Aminoethoxy)phenyl)-N-((1r,3r)-3-methoxycyclobutyl)-2-(1-methyl-1H-imidazol-2-yl)-5-phenylpyrrolo[2,1-f][1,2,4]triazin-4-amine]
> 1000					1 to 25		A (A = 1-25% inhibition)	A (A = 1-25% inhibition)	0 (0 = 0% inhibition)	A (A = 1-25% inhibition)	COCCNc1nc(-c2nccn2C)nn2cc(-c3cccnc3)c(-c3ccccc3)c12 [Compound 195, N-(2-Methoxyethyl)-2-(1-methyl-1H-imidazol-2-yl)-5-phenyl-6-(pyridin-3-yl)pyrrolo[2,1-f][1,2,4]triazin-4-amine]
> 1000					76 to 100		D (D = 76-100% inhibition)	D (D = 76-100% inhibition)	D (D = 76-100% inhibition)	D (D = 76-100% inhibition)	COc1ccnc(Nc2nc(-c3nccn3CCN)nn3cc(-c4ccn(C)n4)c(C)c23)c1 [Compound 188, 2-(1-(2-Aminoethyl)-1H-imidazol-2-yl)-N-(4-methoxypyridin-2-yl)-5-methyl-6-(1-methyl-1H-pyrazol-3-yl)pyrrolo[2,1-f][1,2,4]triazin-4-amine]
> 1000					26 to 49		C (C = 50-75% inhibition)	C (C = 50-75% inhibition)	C (C = 50-75% inhibition)	B (B = 26-49% inhibition)	COCCNc1nc(-c2nccn2C)nn2cc(-c3ccncc3)c(-c3ccccc3)c12 [Compound 202, N-(2-Methoxyethyl)-2-(1-methyl-1H-imidazol-2-yl)-5-phenyl-6-(pyridin-4-yl)pyrrolo[2,1-f][1,2,4]triazin-4-amine]

Source: patent US12459951B2, “Compounds that interact with RAS superfamily proteins for treatment of cancers, inflammatory diseases, rasopathies, and fibrotic disease” (SHY Therapeutics, LLC, priority 2022, dated 2025)
